Test results from patent publication US5508302A, “Phospholipase A2 inhibitors” (American Home Products Corporation, priority 1994, dated 1996).
Several values for one entry are separate records, joined by “and”; a condition that tells them apart may be missing. Equal values may be shown once. Where a name gives a salt, the structure may show the parent alone.

Tests used:
cyclooxygenase = experiment: resident murine peritoneal macrophage test, PGE2 (cyclooxygenase) by RIA; assay type: cell-based, mouse (female Swiss Webster); details: for IC50: 95% confidence limits given, mouse macrophages
Experimental: (§1) The ability of the compounds of the invention to act as inhibitors of the enzymes 5-lipoxygenase and cyclooxygenase was evaluated in the resident murine peritoneal macrophage standard pharmacological test procedure. This test procedure was carried out as follows.
(§2) Resident peritoneal macrophages were collected from female Swiss Webster mice (49 days old, 20-25 gms, Buckshire) by lavaging with 7-8 ml Hanks Balanced Salt Solution (HBSS) without Ca^++ and Mg^++ (GIBCO). The lavage fluid from several mice was pooled and centrifuged at 4° C. for 10 minutes at 400 xg. The cell pellet was resuspended in Medium 199 (GIBCO) with HEPES buffer containing 100 μg/ml gentamicin. Two ml of the cell suspension (4×10^6 cells) were then plated on 35 mm culture dishes (Nunc).
A macrophage monolayer was established after a 1-1.5 hour incubation of the cells at 37° C. in an atmosphere of […] and 5% CO2. The monolayers were washed 2x with 2 ml HBDSS, containing Ca^++ and Mg^++ after which 2 ml Medium 199 supplemented with 10% freshly thawed heat-inactivated fetal bovine serum and 100 μg/ml gentamicin was added for an overnight incubation.
(§3) Residual serum and cellular debris were removed from the monolayers by washing 3x with 2 ml HBSS containing Ca^++ and Mg^++. Macrophages were preincubated for 5 minutes with 1 ml serum-free M199 containing 10 μl dimethyl sulfoxide (DMSO) vehicle or test compound prior to cell activation with zymosan ([…]) or arachidonic acid (AA) (2 μM). After 2 hours, the supernatants are removed and either assayed for LTC4 and PGE2 by radioimmunoassay (RIA) directly or stored at -20° C. In all cases, results are expressed as ng metabolite/4×10^6 cells.
(§4) Calculations: The raw data were converted to ng metabolite/4-10^6 cells using a standard curve. Results were then expressed as percent inhibition of zymosan induced, leukotriene or prostaglandin synthesis (control) using the following equation: […]

5-lipoxygenase = target: T1, 5-lipoxygenase (Mus musculus, UniProt P48999); experiment: resident murine peritoneal macrophage test, LTC4 (5-lipoxygenase) by RIA; assay type: cell-based, mouse (female Swiss Webster)
T1 construct: Resident peritoneal macrophages were collected from female Swiss Webster mice; endogenous in cells; host or cells: resident peritoneal macrophages of female Swiss Webster mice
T1 sequence (P48999 1-674): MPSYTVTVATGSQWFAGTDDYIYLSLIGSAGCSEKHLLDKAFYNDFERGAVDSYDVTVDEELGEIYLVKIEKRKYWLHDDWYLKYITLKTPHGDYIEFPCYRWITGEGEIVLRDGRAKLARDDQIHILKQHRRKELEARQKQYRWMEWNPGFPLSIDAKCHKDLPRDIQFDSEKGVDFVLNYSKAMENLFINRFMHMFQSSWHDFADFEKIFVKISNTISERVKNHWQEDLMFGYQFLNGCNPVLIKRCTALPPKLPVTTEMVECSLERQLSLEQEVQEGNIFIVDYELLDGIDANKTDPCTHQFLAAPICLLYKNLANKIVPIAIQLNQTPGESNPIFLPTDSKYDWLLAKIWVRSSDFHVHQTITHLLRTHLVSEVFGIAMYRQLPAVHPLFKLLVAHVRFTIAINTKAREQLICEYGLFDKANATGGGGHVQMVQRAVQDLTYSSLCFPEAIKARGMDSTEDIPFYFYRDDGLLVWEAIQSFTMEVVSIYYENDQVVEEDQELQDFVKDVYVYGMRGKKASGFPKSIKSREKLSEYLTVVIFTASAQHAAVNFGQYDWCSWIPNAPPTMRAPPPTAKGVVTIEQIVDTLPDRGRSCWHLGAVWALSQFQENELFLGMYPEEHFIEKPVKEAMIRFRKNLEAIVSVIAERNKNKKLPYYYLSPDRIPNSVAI
Experimental: as §1
as §2, with “The cell pellet was resuspended in Medium 199 (GIBCO) with HEPES buffer containing 100 μg/ml gentamicin.” left out
as §3, §4

[1] = tested on: tetradecanoylphorbol acetate (TPA) induced ear edema; experiment: TPA induced ear edema in Webster mice (dermal inflammation); assay type: in vivo; details: for inhibition of TPA induced ear edema: 100 mg/kg, oral, 30 min after TPA, ears measured 4 hrs after TPA
Experimental: Representative compounds of this invention were evaluated in an in vivo standard pharmacological test procedure that measured the effect of the representative compounds on dermal inflammation, as measured by the prevention of tetradecanoylphorbol acetate (TPA) induced ear edema in Webster mice. This test procedure was carried out as follows.
Mice were placed into plastic boxes in groups of six. Eight groups of mice received TPA topically on the right ear. TPA was dissolved in acetone at a concentration of 100 ug/ml. TPA was applied to the right ear by the means of an automatic pipette. Volumes of 10 ul were applied to the inner and outer surfaces of the ear. Each mouse received 2 ug/ear TPA. The left ear (control) received acetone delivered in the same manner. The compounds to be evaluated were given orally 30 min alter treatment with TPA.
Measurements were taken with Oditest calipers, 0-10 mm with 0.01 graduations. The right and left ears were measured 4 hrs after TPA-induced inflammation.
The difference between right and left ear thickness was calculated and the significance was determined by a one way analysis of variance with Dunnet's comparisons to control (P=0.05). Drug effects are expressed as a percent change from control values according to the following formula. [formula]

| SMILES | LTC4 % Inhibition (5-lipoxygenase; dose 0.1 μM) | LTC4 % Inhibition (5-lipoxygenase; dose 0.5 μM) | PGE2 % Inhibition (cyclooxygenase; dose 0.5 μM) | inhibition of TPA induced ear edema [1] [%] | further results |
| --- | --- | --- | --- | --- | --- |
| CCCCCC#CCC#CCC#CCC#CCCCC(=O)O [ETYA, reference compound] |  |  |  |  | IC50 (cyclooxygenase): 1260 nM |
| O=C(CCC1CCCCCCCCCCC1=O)C1=C(O)CSC1=O (centres unmarked) [Example 2, 4-Hydroxy-3-[3-(2-Oxocyclododecyl)propionyl]-2-(5H)-thiophenone] | -4.9% | 39.5% | 3.3% | 40 | PGE2 % Inhibition (cyclooxygenase; dose 0.1 μM): -35.0% |
| COc1ccc2c(c1)c(CC(=O)O)c(C)n2C(=O)c1ccc(Cl)cc1 [Indomethacin, reference compound] |  |  |  |  | activity in TPA induced ear edema ([1]; at 10 mg/g (so in the source)): inactive |
| CC(Cc1ccc(O)c(O)c1)C(C)Cc1ccc(O)c(O)c1 (centres unmarked) [NDGA, reference compound] |  |  |  |  | IC50 (cyclooxygenase): 2150 nM |

Further lines, with some results ahead:

| LTC4 % Inhibition (5-lipoxygenase; dose 0.1 μM) | LTC4 % Inhibition (5-lipoxygenase; dose 0.5 μM) | SMILES | PGE2 % Inhibition (cyclooxygenase; dose 0.5 μM) | inhibition of TPA induced ear edema [1] [%] | further results |
| --- | --- | --- | --- | --- | --- |
| 2.1% | 38.7% | O=C(CCC1CCCCCCCCCCC1=O)C1=C(O)COC1=O (centres unmarked) [Example 1, 4-Hydroxy-3-[3-(2-oxocyclododecyl)-propionyl]-2-(5H)-furanone] | 5.8% |  | PGE2 % Inhibition (cyclooxygenase; dose 0.1 μM): -17.9% |
| 38% and 53% | 64% and 68% | O=C(CCC1CCCCCCCCCCC1=NOCc1ccccc1)C1=C(O)COC1=O (centres unmarked) [Example 3, 3-{3-[2-(Benzyloxyimino)cyclododecyl]-propionyl}-4-hydroxy-2-(5H)-furanone 2-amino-(2-hydroxymethyl)-1,3-propanediol salt] | 86% and 59% | 34 | LTC4 % Inhibition (5-lipoxygenase; dose 0.03 μM): 40%; PGE2 % Inhibition (cyclooxygenase; dose 0.03 μM): 8% |
| 37% and 66% | 77% | O=C(CCC1CCCCCCCCCCC1=NOCc1ccccc1)C1=C(O)CSC1=O (centres unmarked) [Example 4, 3-{3-[2-(Benzyloxyimino)cyclododecyl]-propionyl}-4-hydroxy-2-(5H)-thiophenone 2-amino-(2-hydroxymethyl)-1,3-propanediol salt] | 82% | 19 | LTC4 % Inhibition (5-lipoxygenase; dose 0.03 μM): 45%; LTC4 % Inhibition (5-lipoxygenase; dose 0.35 μM): 97%; PGE2 % Inhibition (cyclooxygenase; dose 0.03 μM): 18%; PGE2 % Inhibition (cyclooxygenase; dose 0.35 μM): 52% |
